The text below walks through data of patent US11161839B2, “2-quinolone derived inhibitors of BCL6” (Cancer Research Technology Limited, priority 2017, dated 2021).

For the assay, the target named is human BCL6 BTB domain (Trx-6xHis-BCL6) (Homo sapiens (Human), UniProt P41182). Put plainly: HTRF in vitro assay (BCL6 BTB domain / BCOR-AF633 peptide). The settings on record: for IC50: read-out: HTRF pIC50 (converted). The class given is binding. A general note: In TR-FRET formats the signal depends on donor and acceptor labels being close together.
The mark [1] stands for this setting: further generated data (Table 1b), 1 nM Trx-6xHis-BCL6, 0.5 nM anti-6xHis-Terbium cryptate.
Setting [2] is: initially generated data (Table 1a), 10 nM Trx-6xHis-BCL6, 1 nM anti-6xHis-Terbium cryptate.

Method: The % inhibition at each concentration was calculated by normalising FRET ratio to the appropriate high (DMSO with all reagents) and low (DMSO without BCL6) controls.

For `Cc1nc(N2CCC(C(=O)N(C)C)CC2)nc(Nc2ccc3c(c2)c(NC(C)(C)c2ncccn2)cc(=O)n3C)c1Cl` [Example 16c, 1-(5-chloro-4-methyl-6-((1-methyl-2-oxo-4((2-(pyrimidin-2-yl)propan-2-yl)amino)-1,2-dihydroquinolin-6-yl)amino)pyrimidin-2-yl)-N,N-dimethylpiperidine-4-carboxamide], the “HTRF pIC50” value under setting [1] was determined as 6.36.
On to `CC[C@@H]1C[C@H]1Nc1cc(=O)n(C)c2ccc(Nc3cc(C(=O)O)nc(Cl)c3C#N)cc12` (racemic) [Example 9i, rac-6-chloro-5-cyano-4-((4-(((1R,2R)-2-ethylcyclopropyl)amino)-1-methyl-2-oxo-1,2-dihydroquinolin-6-yl)amino)picolinic acid], for which, under setting [1], the IC50 is 245 nM.
For `Cn1c(=O)nc(NC(C)(C)c2ncccn2)c2cc(Nc3nc(N4CCC(F)(F)C(CO)C4)ncc3Cl)ccc21` (stereo not drawn) [Example 12i, 6-((5-chloro-2-(4,4-difluoro-3-(hydroxymethyl)piperidin-1-yl)pyrimidin-4-yl)amino)-1-methyl-4-((2-(pyrimidin-2-yl)propan-2-yl)amino)quinazolin-2(1H)-one], the “HTRF pIC50” value under setting [1] is listed as 7.32.
Same read-out and setting: in the case of `Cn1c(=O)cc(NC(C)(C)c2ncccn2)c2cc(Nc3cc(C(=O)N4CC(CC#N)C4)nc(Cl)c3C#N)ccc21` [Example 8h, 2-chloro-6-(3-(cyanomethyl)azetidine-1-carbonyl)-4-((1-methyl-2-oxo-4-((2-(pyrimidin-2-yl)propan-2-yl)amino)-1,2-dihydroquinolin-6-yl)amino)nicotinonitrile] it was 7.68.
Take `C[C@@H]1CN(c2cc(Nc3ccc4c(c3)c(N[C@H](C)C3CC3)cc(=O)n4C)c(Cl)cn2)C[C@H](C)O1` [Example 6h, 6-((5-chloro-2-((2S,6R)-2,6-dimethylmorpholino)pyridin-4-yl)amino)-4-(((R)-1-cyclopropylethyl)amino)-1-methylquinolin-2(1H)-one]: the “HTRF pIC50” value under setting [1] came to 6.00.
`COCCNC(=O)[C@@H](C)Nc1cc(=O)n(C)c2ccc(Nc3ccnc(Cl)c3C#N)cc12` [Example 3e, (R)-2-((6-((2-chloro-3-cyanopyridin-4-yl)amino)-1-methyl-2-oxo-1,2-dihydroquinolin-4-yl)amino)-N-(2-methoxyethyl)propanamide]: the “HTRF pIC50” value under setting [1] was determined as 6.42 and the “HTRF pIC50” value under setting [2] turned out to be 6.59.
For `Cn1c(=O)cc(NC2(CO)CC2)c2cc(Nc3cc(C(=O)O)nc(Cl)c3C#N)ccc21` [Example 9k, 6-chloro-5-cyano-4-((4-((1-(hydroxymethyl)cyclopropyl)amino)-1-methyl-2-oxo-1,2-dihydroquinolin-6-yl)amino)picolinic acid], the “HTRF pIC50” value under setting [1] was 6.35.
As to `Cc1nccc(Nc2ccc3c(c2)c(NC(C)c2ncccn2)cc(=O)n3C)c1C#N` (stereo not drawn) [Example 18a, 2-methyl-4-((1-methyl-2-oxo-4-((1-(pyrimidin-2-yl)ethyl)amino)-1,2-dihydroquinolin-6-yl)amino)nicotinonitrile], under setting [1], the “HTRF pIC50” value is 6.30.
Take `C#CCCNC(=O)[C@@H](C)Nc1cc(=O)n(C)c2ccc(Nc3ccnc(Cl)c3C#N)cc12` [Example 3f, (R)-N-(But-3-yn-1-yl)-2-((6-((2-chloro-3-cyanopyridin-4-yl)amino)-1-methyl-2-oxo-1,2-dihydroquinolin-4-yl)amino)propanamide]: the “HTRF pIC50” value under setting [1] is reported as 6.71 and the “HTRF pIC50” value under setting [2] is given as 6.48.
In the case of `CC(CO)Nc1nc(=O)n(C)c2ccc(Nc3ccnc(Cl)c3C#N)cc12` (stereo not drawn) [Example 1l, 2-chloro-4-[[4-[(2-hydroxy-1-methyl-ethyl)amino]-1-methyl-2-oxo-quinazolin-6-yl]amino]pyridine-3-carbonitrile], the “HTRF pIC50” value is on record as 5.98 under setting [1] and 6.18 under setting [2].
For `CNC(=O)c1cc(Nc2ccc3c(c2)c(N[C@H]2CCC[C@H]2OC)cc(=O)n3C)c(C#N)c(Cl)n1` (racemic) [Example 19g, rac-6-chloro-5-cyano-4((4-(((1S,2R)-2-methoxycyclopentyl)amino)-1-methyl-2-oxo-1,2-dihydroquinolin-6-yl)amino)-N-methylpicolinamide], the IC50 under setting [1] is 851 nM.
`CC(Nc1cc(=O)n(C)c2ccc(Nc3ccnc(Cl)c3C#N)cc12)c1ccncn1` (stereo not drawn) [Example 1q, 2-chloro-4-[[1-methyl-2-oxo-4-(1-pyrimidin-4-ylethylamino)-6-quinolyl]amino]pyridine-3-carbonitrile]: the “HTRF pIC50” value reads like this: under setting [1], 6.29; under setting [2], 6.10.
For `CCNc1cc(=O)n(C)c2ccc(Nc3cc(C(=O)NC)nc(Cl)c3C#N)cc12` [Example 5, 6-Chloro-5-cyano-4-[[4-(ethylamino)-1-methyl-2-oxo-6-quinolyl]amino]-N-methyl-pyridine-2-carboxamide] the same measures were 6.43 and 6.21.
Take `COC1CCC(NC(=O)[C@@H](C)Nc2cc(=O)n(C)c3ccc(Nc4ccnc(Cl)c4C#N)cc23)CC1` (stereo partly drawn) [Example 3i, (R)-2-((6-((2-Chloro-3-cyanopyridin-4-yl)amino)-1-methyl-2-oxo-1,2-dihydroquinolin-4-yl)amino)-N-(4-methoxycyclohexyl)propanamide]: the “HTRF pIC50” value is, setting by setting: under setting [1], 6.42; under setting [2], 6.36.
Consider `C[C@@H](Nc1cc(=O)n(C)c2ccc(Nc3cc(C(=O)O)nc(Cl)c3C#N)cc12)C1CC1` [Example 9b, (R)-6-chloro-5-cyano-4-((4-((1-cyclopropylethyl)amino)-1-methyl-2-oxo-1,2-dihydroquinolin-6-yl)amino)picolinic acid], for which, under setting [1], the “HTRF pIC50” value is listed as 7.13.
As for `Cn1c(=O)cc(N[C@H]2C[C@H](O)C2)c2cc(Nc3ccnc(Cl)c3C#N)ccc21` [Example 1f, trans-2-chloro-4-[[4-[(3-hydroxycyclobutyl)amino]-1-methyl-2-oxo-6-quinolyl]amino]pyridine-3-carbonitrile], the “HTRF pIC50” value is, setting by setting: under setting [1], 6.27; under setting [2], 6.37.
Turning to `Cc1ccnc(C(C)Nc2cc(=O)n(C)c3ccc(Nc4ccnc(Cl)c4C#N)cc23)n1` (stereo not drawn) [Example 1i, 2-chloro-4-[[1-methyl-4-[1-(4-methylpyrimidin-2-yl)ethylamino]-2-oxo-6-quinolyl]amino]pyridine-3-carbonitrile], the “HTRF pIC50” value came to 6.26 under setting [1] and 6.31 under setting [2].
As for `CC(Nc1nc(=O)n(C)c2ccc(Nc3nc(N4C[C@H](C)C[C@H](C)C4)ncc3Cl)cc12)c1ncccn1` (stereo partly drawn) [Example 12e, 6-((5-chloro-2-((3R,5S)-3,5-dimethylpiperidin-1-yl)pyrimidin-4-yl)amino)-1-methyl-4-((1-(pyrimidin-2-yl)ethyl)amino)quinazolin-2(1H)-one:formic acid (1:1)], the “HTRF pIC50” value under setting [1] is listed as 6.58.
Same read-out and setting: the same measure for `Cn1c(=O)cc(NC(C)(C)c2ncccn2)c2cc(Nc3cc(C(=O)N4CC5(CCO5)C4)nc(Cl)c3C#N)ccc21` [Example 8g, 2-chloro-4-((1-methyl-2-oxo-4-((2-(pyrimidin-2-yl)propan-2-yl)amino)-1,2-dihydroquinolin-6-yl)amino)-6-(1-oxa-6-azaspiro[3.3]heptane-6-carbonyl)nicotinonitrile]: 7.82.
With `Cc1nc(C(C)Nc2cc(=O)n(C)c3ccc(Nc4ccnc(Cl)c4C#N)cc23)no1` (stereo not drawn) [Example 1h, 2-chloro-4-[[1-methyl-4-[1-(5-methyl-1,2,4-oxadiazol-3-yl)ethylamino]-2-oxo-6-quinolyl]amino]pyridine-3-carbonitrile], the “HTRF pIC50” value is 6.38 under setting [1] and 6.40 under setting [2].
As for `CNC(=O)c1cc(Nc2ccc3c(c2)c(NC2CCC2OC)cc(=O)n3C)c(C#N)c(Cl)n1` (racemic) [Example 23b, rac-6-chloro-5-cyano 4-((4-(((1R,2R)-2-methoxycyclobutyl)amino)-1-methyl-2-oxo-1,2-dihydroquinolin-6-yl)amino)-N-methylpicolinamide or rac-6-chloro-5-cyano-4-((4-(((1R,2S)-2-methoxycyclobutyl)amino)-1-methyl-2-oxo-1,2-dihydroquinolin-6-yl)amino)-N-methylpicolinamide], the IC50 under setting [1] was 468 nM.
Take `C[C@@H]1C[C@H](C)CN(c2ncc(Cl)c(Nc3ccc4c(c3)c(NC(C)(C)c3ncccn3)nc(=O)n4C)n2)C1` [Example 26g, 6-[[5-chloro-2-[(3R,5S)-3,5-dimethyl-1-piperidyl]pyrimidin-4-yl]amino-1-methyl-4-[(1-methyl-1-pyrimidin-2-yl)ethyl)amino]quinazolin-2-one:formic acid (1:1)]: the “HTRF pIC50” value under setting [1] amounted to 6.54.
In the case of `C[C@@H](CCO)Nc1cc(=O)n(C)c2ccc(Nc3ccnc(Cl)c3C#N)cc12` [Example 3n, (S)-2-Chloro-4-((4-((4-hydroxybutan-2-yl)amino)-1-methyl-2-oxo-1,2-dihydroquinolin-6-yl)amino)nicotinonitrile], the “HTRF pIC50” value runs as follows: under setting [1], 6.01; under setting [2], 6.31.
Consider `COc1cc(Nc2ccnc(Cl)c2C#N)cc2c(NC(C)(C)c3ncccn3)cc(=O)n(C)c12` [Example 10r, 2-chloro-4-((8-methoxy-1-methyl-2-oxo-4-((2-(pyrimidin-2-yl)propan-2-yl)amino)-1,2-dihydroquinolin-6-yl)amino)nicotinonitrile], for which the “HTRF pIC50” value under setting [1] is on record as 6.32.
Still for that read-out and setting: the same measure for `C#CC1(Nc2cc(=O)n(C)c3ccc(Nc4cc(C(=O)O)nc(Cl)c4C#N)cc23)CC1` [Example 9h, 6-chloro-5-cyano-4-((4-((1-ethynylcyclopropyl)amino)-1-methyl-2-oxo-1,2-dihydroquinolin-6-yl)amino)picolinic acid]: 6.77.
Regarding `Cn1c(=O)cc(NC2CC2(C)C)c2cc(Nc3cc(C(=O)O)nc(Cl)c3C#N)ccc21` (stereo not drawn) [Example 9j, 6-chloro-5-cyano-4-((4-((2,2-dimethylcyclopropyl)amino)-1-methyl-2-oxo-1,2-dihydroquinolin-6-yl)amino)picolinic acid], the “HTRF pIC50” value under setting [1] is listed as 6.49.
